Results from patent publication US20120255051A1, “HERBICIDE TOLERANT PLANTS” (priority 2009, published 2012).
Values joined by “and” are separate entries in the source; they are usually repeats but may differ in a detail not shown here. Equal values may be shown once.

Test system: Brassica plants comprising mutant AHAS alleles
Test: Field trial, pre-planting treatment (0, 10, 20, 30 g a.i./ha), two locations in Canada: ERG, EST1, EST2, PPTOX, VIG1, VIG2, VIG3 scores
Format: in vivo, Brassica napus
From the text: Tests were set up and conducted to asses the growth and performance of plants comprising AHAS full knock-out alleles, and to further analyze the correlation between the presence of full knockout and missense AHAS genes in Brassica plants and plant growth and herbicide tolerance of the Brassica plants in the field. To this end, the Brassica plants identified in Example 1 and 2 were backcrossed two times with an elite parent line, and subsequently selfed twice to obtain homozygous plants (BC2S2). Plants were grown as row plots in a split plot design with three replicates (main plots=herbicide treatments, subplots=genotypes) at two locations in Canada. Treatment pre-planting was carried out on the soil about two days before sowing with a dose of 0 (treatment A), 10 (treatment B), 20 (treatment C) or 30 (treatment D) g a.i./ha of thiencarbazone methyl. Herbicide tolerance was measured by scoring for different parameters. The parameter emergence (ERG) was scored at the cotyledon stage on a scale 1-9, where 1 means late emergence and 9 means early emergence. Establishment was scored 14 days after sowing (EST1) and 21 days after sowing (EST2). Scores were from 1 to 9, where 1 is the worst establishment (least plants that emerged), and 9 is the best establishment (most plants emerged). Phytotoxicity (PPTOX) was determined after establishment. Plants were evaluated on a scale of 1 to 9, where 1=completely yellowing, 5=50% of plant is yellow and 9=no yellowing. The vigor scores (see above) were determined at 1-2 leaf stage (VIG1), 7 days after VIG1 (VIG2) and 14 days after VIG1 (VIG3). The average values (Av) and standard deviations (SD) of the scores for the different parameters are represented in Table 7a-g.
Further, the contribution of the knock-out allele to herbicide tolerance conferred by the missense allele was calculated. First, the scores were corrected for a possible effect of the growth per se, independent of herbicide treatment. To this end, the scores for treatments B, C and D were divided by the scores for treatment A for the same genotype and for the same parameter (corrected herbicide tolerance scores). Next, the effect of the knock-out allele to these corrected herbicide tolerance scores obtained by the missense allele was calculated. Therefore, the corrected herbicide tolerance scores for the missense—knock-out allele combination was divided by the corrected herbicide tolerance scores for the missense allele—wild-type combination. In case the knock-out allele has no effect on herbicide tolerance conferred by the missense allele, this ratio should be 1. In case the knock-out allele positively contributes to the herbicide tolerance conferred by the missense allele, this ratio should be higher than 1. The results for the contribution of the knock-out allele to herbicide tolerance conferred by the missense allele as calculated above are shown in table 8.

[1] = AHAS1 WT/AHAS3 HETO104, 10 g a.i./ha pre-planting (B), Location A
[2] = AHAS1 WT/AHAS3 HETO104, 10 g a.i./ha pre-planting (B), Location B
[3] = AHAS1 WT/AHAS3 HETO104, 20 g a.i./ha pre-planting (C), Location A
[4] = AHAS1 WT/AHAS3 HETO104, 20 g a.i./ha pre-planting (C), Location B
[5] = AHAS1 WT/AHAS3 HETO104, 30 g a.i./ha pre-planting (D), Location A
[6] = AHAS1 WT/AHAS3 HETO104, 30 g a.i./ha pre-planting (D), Location B
[7] = AHAS1 WT/AHAS3 HETO111, 10 g a.i./ha pre-planting (B), Location A
[8] = AHAS1 WT/AHAS3 HETO111, 10 g a.i./ha pre-planting (B), Location B
[9] = AHAS1 WT/AHAS3 HETO111, 20 g a.i./ha pre-planting (C), Location A
[10] = AHAS1 WT/AHAS3 HETO111, 20 g a.i./ha pre-planting (C), Location B
[11] = AHAS1 WT/AHAS3 HETO111, 30 g a.i./ha pre-planting (D), Location A
[12] = AHAS1 WT/AHAS3 HETO111, 30 g a.i./ha pre-planting (D), Location B
[13] = AHAS1 WT/AHAS3 WT, 10 g a.i./ha pre-planting (B), Location A
[14] = AHAS1 WT/AHAS3 WT, 10 g a.i./ha pre-planting (B), Location B
[15] = AHAS1 WT/AHAS3 WT, 20 g a.i./ha pre-planting (C), Location A
[16] = AHAS1 WT/AHAS3 WT, 20 g a.i./ha pre-planting (C), Location B
[17] = AHAS1 WT/AHAS3 WT, 30 g a.i./ha pre-planting (D), Location A

## COC(=O)c1csc(C)c1S(=O)(=O)NC(=O)n1nc(OC)n(C)c1=O [thiencarbazone-methyl, methyl 4-[(4,5-dihydro-3-methoxy-4-methyl-5-oxo-1H-1,2,4-triazol-1-yl)carbonylsulfamoyl]-5-methylthiophene-3-carboxylate]
[1]
  phytotoxicity (PPTOX) score, Av: 1.33
  vigor1 (VIG1) score, Av: 1.33
  vigor2 (VIG2) score, Av: 1.00
[2]
  establishment (EST2) score, Av: 3.33
  phytotoxicity (PPTOX) score, Av: 1.33
  vigor2 (VIG2) score, Av: 1.33
[3]
  establishment (EST2) score, Av: 1.00
  phytotoxicity (PPTOX) score, Av: 1.00
  vigor1 (VIG1) score, Av: 1.00
  vigor2 (VIG2) score, Av: 1.00
[4]
  establishment (EST2) score, Av: 2.33
  phytotoxicity (PPTOX) score, Av: 1.00
  vigor1 (VIG1) score, Av: 1.33
  vigor2 (VIG2) score, Av: 1.00
[5]
  establishment (EST2) score, Av: 1.00
  phytotoxicity (PPTOX) score, Av: 1.00
  vigor1 (VIG1) score, Av: 1.00
  vigor2 (VIG2) score, Av: 1.00
[6]
  establishment (EST2) score, Av: 1.00
  phytotoxicity (PPTOX) score, Av: 1.00
  vigor1 (VIG1) score, Av: 1.00
  vigor2 (VIG2) score, Av: 1.00
[7]
  establishment (EST2) score, Av: 5.33 and 5.67
  vigor1 (VIG1) score, Av: 6.00
  vigor2 (VIG2) score, Av: 7.00
[8]
  phytotoxicity (PPTOX) score, Av: 6.00 and 6.33
  vigor1 (VIG1) score, Av: 6.33 and 6.00
  vigor2 (VIG2) score, Av: 7.00
[9]
  establishment (EST2) score, Av: 4.67
  phytotoxicity (PPTOX) score, Av: 5.00
  vigor1 (VIG1) score, Av: 5.00
  vigor2 (VIG2) score, Av: 6.33
[10]
  establishment (EST2) score, Av: 4.67
  vigor1 (VIG1) score, Av: 5.00
  vigor2 (VIG2) score, Av: 6.00 and 5.67
[11]
  establishment (EST2) score, Av: 5.00
  phytotoxicity (PPTOX) score, Av: 5.00
  vigor1 (VIG1) score, Av: 5.00
  vigor2 (VIG2) score, Av: 5.67 and 5.33
[12]
  phytotoxicity (PPTOX) score, Av: 4.00
  vigor1 (VIG1) score, Av: 3.67
  vigor2 (VIG2) score, Av: 4.33 and 5.00
[13]
  establishment (EST2) score, Av: 1.00 and 2.00
  phytotoxicity (PPTOX) score, Av: 1.00
  vigor1 (VIG1) score, Av: 1.00 and 1.33
  vigor2 (VIG2) score, Av: 1.00
[14]
  establishment (EST2) score, Av: 4.33 and 5.00
  phytotoxicity (PPTOX) score, Av: 1.33 and 1.67 and 2.33
  vigor1 (VIG1) score, Av: 3.00
  vigor2 (VIG2) score, Av: 1.67 and 2.00
[15]
  establishment (EST2) score, Av: 1.00
  phytotoxicity (PPTOX) score, Av: 1.00
  vigor1 (VIG1) score, Av: 1.00
  vigor2 (VIG2) score, Av: 1.00
[16]
  establishment (EST2) score, Av: 3.67 and 4.00 and 3.00
  phytotoxicity (PPTOX) score, Av: 1.00 and 1.33
  vigor1 (VIG1) score, Av: 1.33
  vigor2 (VIG2) score, Av: 1.33 and 1.67
[17]
  establishment (EST2) score, Av: 1.00
  phytotoxicity (PPTOX) score, Av: 1.00
